Data taken from patent US12157746B2, “Tetrahydro-1H-pyrazino[2,1-a]isoindolylquinoline compounds for the treatment of autoimmune disease” (F. HOFFMANN-LA ROCHE AG, priority 2018, dated 2024).

What was measured:
hERG K+ channel = target: T1, hERG K+ channel (Homo sapiens, UniProt Q12809); assay: hERG channel inhibition assay; format: cell-based; details: patch-clamp (voltage-clamp, whole-cell); for IC50: CHO cells expressing hERG; for IC20: human, CHO cells stably expressing hERG
T1 construct: expressed in transfected cells; host or cells: CHO (Chinese hamster ovary) cells, CHOhERG
Description: hERG Channel Inhibition Assay
The hERG K^+ channels were cloned in humans and stably expressed in a CHO (Chinese hamster ovary) cell line. CHOhERG cells were used for patch-clamp (voltage-clamp, whole-cell) experiments. Cells were stimulated by a voltage pattern to activate hERG channels and conduct IKhERG currents (rapid delayed outward rectifier potassium current of the hERG channel). After the cells were stabilized for a few minutes, the amplitude and kinetics of IKhERG were recorded at a stimulation frequency of 0.1 Hz (6 bpm). Thereafter, the test compound was added to the preparation at increasing concentrations. For each concentration, an attempt was made to reach a steady-state effect, usually, this was achieved within 3-10 min at which time the next highest concentration was applied. The amplitude and kinetics of IKhERG are recorded in each concentration of the drug which were compared to the control values (taken as 100%). (references: Redfem W S, Carlsson L, Davis A S, Lynch W G, MacKenzie I, Palethorpe S, Siegl P K, Strang I, Sullivan A T, Wallis R, Camm A J, Hammond T G. 2003; Relationships between preclinical cardiac electrophysiology, clinical QT interval prolongation and torsade de pointes for a broad range of drugs: evidence for a provisional safety margin in drug development. Cardiovasc. Res. 58:32-45, Sanguinetti M C, Tristani-Firouzi M. 2006; hERG potassium channels and cardiac arrhythmia. Nature 440:463-469, Webster R, Leishman D, Walker D. 2002; Towards a drug concentration effect relationship for QT prolongation and torsades de pointes. Curr. Opin. Drug Discov. Devel. 5:116-26).

human TLR9 = target: T2, human TLR9 (Homo sapiens, UniProt Q9NR96); assay: HEK293-Blue-hTLR-9 cells assay; format: cell-based; details: HEK293-Blue-hTLR9 cells, ODN2006 stimulation, 20 hrs, SEAP reporter; read-out: HEK/hTLR9 IC50
T2 sequence (Q9NR96 26-1032): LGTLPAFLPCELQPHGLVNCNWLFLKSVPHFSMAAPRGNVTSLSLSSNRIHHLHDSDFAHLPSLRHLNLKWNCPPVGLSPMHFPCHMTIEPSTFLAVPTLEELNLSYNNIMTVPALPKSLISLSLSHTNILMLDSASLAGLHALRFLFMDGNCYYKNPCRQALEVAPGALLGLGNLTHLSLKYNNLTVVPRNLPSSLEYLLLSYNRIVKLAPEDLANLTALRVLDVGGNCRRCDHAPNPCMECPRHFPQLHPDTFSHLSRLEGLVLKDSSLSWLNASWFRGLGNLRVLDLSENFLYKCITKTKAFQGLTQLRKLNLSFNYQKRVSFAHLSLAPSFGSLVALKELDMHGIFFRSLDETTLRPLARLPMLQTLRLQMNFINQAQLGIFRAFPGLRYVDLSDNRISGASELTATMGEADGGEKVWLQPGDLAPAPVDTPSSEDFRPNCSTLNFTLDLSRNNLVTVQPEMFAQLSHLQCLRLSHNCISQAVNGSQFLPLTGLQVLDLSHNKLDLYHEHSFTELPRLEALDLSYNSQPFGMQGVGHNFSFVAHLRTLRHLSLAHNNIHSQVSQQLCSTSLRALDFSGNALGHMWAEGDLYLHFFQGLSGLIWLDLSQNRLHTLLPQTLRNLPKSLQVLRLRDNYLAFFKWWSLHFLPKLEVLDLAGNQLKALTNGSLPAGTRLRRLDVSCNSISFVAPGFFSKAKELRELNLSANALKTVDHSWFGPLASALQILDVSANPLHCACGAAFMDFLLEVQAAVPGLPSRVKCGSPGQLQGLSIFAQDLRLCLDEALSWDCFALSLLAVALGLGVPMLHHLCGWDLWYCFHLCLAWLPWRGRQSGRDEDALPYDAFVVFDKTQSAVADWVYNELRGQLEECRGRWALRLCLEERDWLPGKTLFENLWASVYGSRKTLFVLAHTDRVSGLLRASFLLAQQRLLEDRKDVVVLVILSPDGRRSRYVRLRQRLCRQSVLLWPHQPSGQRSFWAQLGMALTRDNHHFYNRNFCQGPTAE
Method in brief: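 Antagonist mode in HEK293-Blue hTLR9 reporter cells (SEAP under NF-κB/AP-1 sites), stimulated with ODN2006 added from a 20 uM solution. Serially diluted compound (1% DMSO final) was incubated 20 hrs at 37° C. Supernatant SEAP was developed with QUANTI-Blue for 2 h at 37° C and read at 620˜655 nm.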

T1 sequence (Q12809 whole entry): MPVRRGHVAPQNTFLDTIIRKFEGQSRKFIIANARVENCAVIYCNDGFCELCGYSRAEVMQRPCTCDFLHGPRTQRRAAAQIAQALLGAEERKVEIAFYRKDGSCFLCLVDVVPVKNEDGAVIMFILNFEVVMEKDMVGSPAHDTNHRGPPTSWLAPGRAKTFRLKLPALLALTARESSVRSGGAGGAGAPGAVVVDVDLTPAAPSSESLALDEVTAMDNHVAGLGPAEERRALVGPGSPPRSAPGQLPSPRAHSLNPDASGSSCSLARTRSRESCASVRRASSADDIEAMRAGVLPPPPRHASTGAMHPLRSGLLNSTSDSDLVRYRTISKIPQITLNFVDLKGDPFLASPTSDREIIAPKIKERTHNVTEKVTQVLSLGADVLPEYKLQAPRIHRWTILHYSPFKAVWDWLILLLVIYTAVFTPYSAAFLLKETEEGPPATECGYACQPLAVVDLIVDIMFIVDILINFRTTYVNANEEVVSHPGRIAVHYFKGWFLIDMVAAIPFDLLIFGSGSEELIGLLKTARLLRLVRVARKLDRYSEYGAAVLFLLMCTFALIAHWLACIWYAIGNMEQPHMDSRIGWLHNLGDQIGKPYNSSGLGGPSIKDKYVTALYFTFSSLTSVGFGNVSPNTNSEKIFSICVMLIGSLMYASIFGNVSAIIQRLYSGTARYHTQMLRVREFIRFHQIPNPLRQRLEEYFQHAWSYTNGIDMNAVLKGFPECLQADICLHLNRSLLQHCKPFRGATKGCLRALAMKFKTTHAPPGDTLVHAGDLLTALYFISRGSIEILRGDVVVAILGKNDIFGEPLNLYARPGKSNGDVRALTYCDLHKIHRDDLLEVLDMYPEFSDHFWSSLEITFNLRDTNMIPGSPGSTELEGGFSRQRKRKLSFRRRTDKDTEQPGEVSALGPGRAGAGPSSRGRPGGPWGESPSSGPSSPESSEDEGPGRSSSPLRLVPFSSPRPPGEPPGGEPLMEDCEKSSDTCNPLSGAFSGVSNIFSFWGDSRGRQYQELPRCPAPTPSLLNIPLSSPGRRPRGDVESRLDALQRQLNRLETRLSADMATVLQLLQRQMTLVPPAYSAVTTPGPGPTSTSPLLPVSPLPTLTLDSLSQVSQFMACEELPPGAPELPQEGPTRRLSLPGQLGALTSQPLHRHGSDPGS

SMILES	IC50 (hERG K+ channel) [µM]	IC20 (hERG K+ channel) [µM]	IC50 (human TLR9) [µM]
C[C@@H]1CN(c2ccc(C#N)c3ncccc23)C[C@@H]2c3ccc(N4CCNCC(O)C4)cc3CN12 (stereo partly drawn) [Example 15, 5-[(4R,10bS)-8-(6-hydroxy-1,4-diazepan-1-yl)-4-methyl-3,4,6,10b-tetrahydro-1H-pyrazino[2,1-a]isoindol-2-yl]quinoline-8-carbonitrile]	> 20	> 10	0.0832
COC12CNCC1CN(c1ccc3c(c1)CN1[C@H](C)CN(c4ccc(C#N)c5ncccc45)C[C@H]31)C2 (stereo partly drawn) [Example 41, 5-[(4R,10bS)-8-(3a-methoxy-1,2,3,4,6,6a-hexahydropyrrolo[3,4-c]pyrrol-5-yl)-4-methyl-3,4,6,10b-tetrahydro-1H-pyrazino[2,1-a]isoindol-2-yl]quinoline-8-carbonitrile]	> 20	> 10	< 0.0318
C[C@@H]1CN(c2ccc(C#N)c3ncccc23)C[C@@H]2c3ccc(N4C[C@@H](N)[C@](C)(O)C4)cc3CN12 [Example 45A, 5-[(4R,10bS)-8-[(3R,4R)-4-amino-3-hydroxy-3-methyl-pyrrolidin-1-yl]-4-methyl-3,4,6,10b-tetrahydro-1H-pyrazino[2,1-a]isoindol-2-yl]quinoline-8-carbonitrile]	> 20	7.4	0.0783
C[C@@H]1CN(c2ccc(C#N)c3ncccc23)C[C@@H]2c3ccc(N4CC5(CNCCO5)C4)cc3CN12 [Example 35, 5-[(4R,10bS)-4-methyl-8-(5-oxa-2,8-diazaspiro[3.5]nonan-2-yl)-3,4,6,10b-tetrahydro-1H-pyrazino[2,1-a]isoindol-2-yl]quinoline-8-carbonitrile]	> 20	> 10	0.111
C[C@@H]1CN(c2ccc(C#N)c3ncccc23)C[C@@H]2c3ccc(N4C[C@H]5NCCO[C@@H]5C4)cc3CN12 [Example 44, 5-[(4R,10bS)-4-methyl-8-[(4aR,7aR)-3,4,4a,5,7,7a-hexahydro-2H-pyrrolo[3,4-b][1,4]oxazin-6-yl]-3,4,6,10b-tetrahydro-1H-pyrazino[2,1-a]isoindol-2-yl]quinoline-8-carbonitrile]	> 20	6.4	0.102
C[C@@H]1CN(c2ccc(C#N)c3ncccc23)C[C@@H]2c3ccc(NCCN(C)C)cc3CN12 [Example 26, 5-[(4R,10bS)-8-[2-(dimethylamino)ethylamino]-4-methyl-3,4,6,10b-tetrahydro-1H-pyrazino[2,1-a]isoindol-2-yl]quinoline-8-carbonitrile]	> 20	5	0.0558
C[C@@H]1CN(c2ccc(C#N)c3ncccc23)C[C@@H]2c3ccc(NC4CNCCOC4)cc3CN12 (stereo partly drawn) [Example 56, 5-[(4R,10bS)-4-methyl-8-(1,4-oxazepan-6-ylamino)-3,4,6,10b-tetrahydro-1H-pyrazino[2,1-a]isoindol-2-yl]quinoline-8-carbonitrile]	> 20	> 10	0.103
CO[C@H]1CN(c2ccc3c(c2)CN2[C@H](C)CN(c4ccc(C#N)c5ncccc45)C[C@H]32)C[C@@H]1N (relative stereo) [Example 16, 5-[(4R,10bS)-8-[trans-3-amino-4-methoxy-pyrrolidin-1-yl]-4-methyl-3,4,6,10b-tetrahydro-1H-pyrazino[2,1-a]isoindol-2-yl]quinoline-8-carbonitrile]	> 20	> 10	0.0952
